Test results published in patent publication US6372790B1, “Pharmaceutical composition comprising a combination of metformin and fibrate, and its use for the preparation of medicines intended to reduce hyperglycaemia” (Merck Patent Gesellschaft mit beschrankter Haftung, priority 1998, dated 2002).

Test system: NIDD STZ rats
Experiment: Streptozotocin-induced non-insulin-dependent diabetes (NIDD) rat model: glycaemia, cholesterol, triglycerides
Assay type: in vivo, male Wistar rats
Settings: for Cholesterol / Glycaemia / Triglycerides: STZ (45 mg/kg) diabetic male Wistar rats, oral treatment at the doses in Table 1, measured 23 days after STZ, mean ± SEM, 10 rats per group
Experimental: Non-insulin-dependent diabetes (NIDD) is induced by injecting streptozotocin into male wistar rats. […] The procedure followed is as follows. […] Two weeks after this treatment, blood is taken and the glycaemia is measured. […] The animals then receive, orally, either metformin alone, or a fibrate alone, or a combination of the two in the doses indicated in Table 1 below. 23 days after the injection of streptozotocin, the animals are sacrificed and the following parameters are determined: glycaemia, cholesterol and triglycerides. […] The Student t test is carried out to evaluate the significance of the results obtained.

SMILES | Cholesterol | Glycaemia | Triglycerides | Glycaemia (listed as bezafibrate) | Glycaemia (listed as metformin) | Effects on the levels of cholesterol and of triglycerides when administered alone (metformin alone, in animals, such as in man)
CC(C)(Oc1ccc(CCNC(=O)c2ccc(Cl)cc2)cc1)C(=O)O [Bezafibrate, bezafibrate] | 0.52 ± 0.05 g/L | 2.20 ± 0.21 g/L | 0.81 ± 0.11 g/L | 2.20 g/L |  | 
CCOC(=O)C(C)(C)Oc1ccc(Cl)cc1 [Clofibrate, clofibrate] | 0.63 ± 0.03 g/L | 2.58 ± 0.11 g/L | 0.93 ± 0.11 g/L |  |  | 
CC(C)OC(=O)C(C)(C)Oc1ccc(C(=O)c2ccc(Cl)cc2)cc1 [Fenofibrate, fenofibrate] | 0.45 ± 0.02 g/L |  | 0.61 ± 0.10 g/L |  |  | 
CN(C)C(=N)N=C(N)N [Metformin, metformin] | 0.61 ± 0.03 g/L | 1.74 ± 0.14 g/L | 0.85 ± 0.10 g/L |  | 1.74 g/L | effects on decreasing the levels of cholesterol and of triglycerides
